Test results from PubChem BioAssay AID256 (DTP/NCI, 2004).
Several values for one entry are separate records, joined by “and”; a condition that tells them apart may be missing. Identical values can stand only once. Toxic doses and inconclusive results are not listed.

Tested on: CD2F1 mice, L1210 leukemia ip, survival T/C
Test: NCI In Vivo Anticancer Drug Screen. Data for tumor model L1210 Leukemia (intraperitoneal) in CD2F1 (CDF1) mice
Conditions: higher = longer survival
Method in brief: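 Compound-dosed mice with transplantable tumor versus matched vehicle controls; endpoint ratio T/C reported.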

[1] = endpoint: mean survival time, dose: 100.0 mg/kg/injection, schedule: Q01DX009 (ip), vehicle: saline with Tween-80
[2] = endpoint: mean survival time, dose: 100.0 mg/kg/injection, schedule: Q04DX002 (ip), vehicle: saline with Tween-80
[3] = endpoint: mean survival time, dose: 200.0 mg/kg/injection, schedule: Q04DX002 (ip), vehicle: saline with Tween-80
[4] = endpoint: mean survival time, dose: 400.0 mg/kg/injection, schedule: Q04DX002 (ip), vehicle: saline with Tween-80
[5] = endpoint: mean survival time, dose: 100.0 mg/kg/injection, schedule: Q04DX003 (ip), vehicle: saline with Tween-80
[6] = endpoint: mean survival time, dose: 200.0 mg/kg/injection, schedule: Q01DX009 (ip), vehicle: saline with Tween-80
[7] = endpoint: mean survival time, dose: 200.0 mg/kg/injection, schedule: Q04DX003 (ip), vehicle: saline with Tween-80
[8] = endpoint: mean survival time, dose: 400.0 mg/kg/injection, schedule: Q01DX009 (ip), vehicle: saline with Tween-80
[9] = endpoint: mean survival time, dose: 400.0 mg/kg/injection, schedule: Q04DX003 (ip), vehicle: saline with Tween-80
[10] = endpoint: mean survival time, dose: 25.0 mg/kg/injection, schedule: Q04DX002 (ip), vehicle: saline with Tween-80
[11] = endpoint: mean survival time, dose: 50.0 mg/kg/injection, schedule: Q04DX002 (ip), vehicle: saline with Tween-80

For `CN(C)N=Nc1ccc(C(N)=O)cc1`, the T/C (endpoint: mean survival time, dose: 18.75 mg/kg/injection, schedule: Q01DX009 (ip), vehicle: Klucel (hydroxypropylcellulose) (HPC)) was 112 % of control, the T/C (endpoint: mean survival time, dose: 150.0 mg/kg/injection, schedule: Q01DX009 (ip), vehicle: Klucel (hydroxypropylcellulose) (HPC)) was 109 % of control and the T/C (endpoint: median survival time, dose: 12.5 mg/kg/injection, schedule: Q01DX005 (ip), vehicle: saline with Tween-80) was 105 % of control. For the same compound, the T/C (endpoint: median survival time, dose: 25.0 mg/kg/injection, schedule: Q01DX005 (ip), vehicle: saline with Tween-80) was 113 % of control, the T/C (endpoint: median survival time, dose: 36.0 mg/kg/injection, schedule: Q01DX005 (ip), vehicle: saline with Tween-80) was 123 % of control and 110 % of control and the T/C (endpoint: median survival time, dose: 36.0 mg/kg/injection, schedule: Q01DX009 (ip), vehicle: saline with Tween-80) was 116 % of control. For the same compound, the T/C (endpoint: median survival time, dose: 60.0 mg/kg/injection, schedule: Q01DX005 (ip), vehicle: saline with Tween-80) was 113 % of control, the T/C (endpoint: median survival time, dose: 100.0 mg/kg/injection, schedule: Q01DX009 (ip), vehicle: saline with Tween-80) was 166 % of control and the T/C (endpoint: median survival time, dose: 167.0 mg/kg/injection, schedule: Q01DX005 (ip), vehicle: saline with Tween-80) was 157 % of control. The T/C (endpoint: median survival time, dose: 167.0 mg/kg/injection, schedule: Q01DX009 (ip), vehicle: saline with Tween-80) was 176 % of control, the T/C (endpoint: median survival time, dose: 278.0 mg/kg/injection, schedule: Q01DX005 (ip), vehicle: saline with Tween-80) was 96 % of control and the T/C (endpoint: median survival time, dose: 278.0 mg/kg/injection, schedule: Q01DX009 (ip), vehicle: saline with Tween-80) was 98 % of control.
With `O=C1NC(=O)c2ccc3c4c(ccc1c24)C(=O)NC3=O` the T/C (endpoint: mean survival time, dose: 15.5 mg/kg/injection, schedule: Q01DX009 (ip), vehicle: saline with Tween-80) was 100 % of control, the T/C (endpoint: mean survival time, dose: 31.0 mg/kg/injection, schedule: Q01DX009 (ip), vehicle: saline with Tween-80) was 94 % of control and the T/C (endpoint: mean survival time, dose: 62.0 mg/kg/injection, schedule: Q01DX009 (ip), vehicle: saline with Tween-80) was 100 % of control. The T/C (endpoint: mean survival time, dose: 62.5 mg/kg/injection, schedule: Q01DX009 (ip), vehicle: saline with Tween-80) was 98 % of control.
With `C=CCOP(=O)(OCC=C)C1(Cl)C(Cl)=C(Cl)C(=O)C(Cl)=C1Cl` the T/C (endpoint: mean survival time, dose: 25.0 mg/kg/injection, schedule: Q01DX009 (ip), vehicle: saline + alcohol) was 96 % of control, the T/C (endpoint: mean survival time, dose: 50.0 mg/kg/injection, schedule: Q01DX009 (ip), vehicle: saline + alcohol) was 96 % of control and the T/C (endpoint: mean survival time, dose: 100.0 mg/kg/injection, schedule: Q01DX009 (ip), vehicle: saline + alcohol) was 96 % of control. The T/C [1] was 100 % of control.
In the case of `CCOC(CCCO)OCC`, the T/C [2] is reported as 103 % of control, the T/C [3] is reported as 100 % of control and the T/C [4] is reported as 103 % of control.
For `O=C(CCl)N1c2ccccc2Sc2ccccc21`, the T/C (endpoint: mean survival time, dose: 25.0 mg/kg/injection, schedule: Q01DX009 (ip), vehicle: water) was 93 % of control, the T/C (endpoint: mean survival time, dose: 50.0 mg/kg/injection, schedule: Q01DX009 (ip), vehicle: water) was 91 % of control and the T/C (endpoint: mean survival time, dose: 100.0 mg/kg/injection, schedule: Q01DX009 (ip), vehicle: water) was 95 % of control. The T/C (endpoint: mean survival time, dose: 200.0 mg/kg/injection, schedule: Q01DX009 (ip), vehicle: water) was 95 % of control.
With `O=C(O)c1ccc(OCCOc2ccccc2)cc1` the T/C (endpoint: mean survival time, dose: 66.0 mg/kg/injection, schedule: Q04DX003 (ip), vehicle: saline sonified) was 101 % of control, the T/C (endpoint: mean survival time, dose: 100.0 mg/kg/injection, schedule: Q04DX003 (ip), vehicle: saline sonified) was 96 % of control and the T/C (endpoint: mean survival time, dose: 150.0 mg/kg/injection, schedule: Q04DX003 (ip), vehicle: saline sonified) was 107 % of control.
`CCOC(=O)C(C#N)(CCC#N)CCC#N` was tested, and the T/C [1] was 94 % of control, the T/C [5] was 100 % of control and the T/C [6] was 98 % of control. The T/C [7] was 102 % of control, the T/C [8] was 94 % of control and the T/C [9] was 100 % of control.
`O=CNc1cccc(Cl)c1` was tested, and the T/C [1] was 96 % of control, the T/C [5] was 100 % of control and the T/C [6] was 95 % of control. The T/C [7] was 90 % of control, the T/C [8] was 96 % of control and the T/C [9] was 90 % of control.
With `Cc1nc(N)nc(N)c1N1CCN(c2ccc(C(=O)NC(C(=O)O)C(=O)O)cc2)CC1` the T/C (endpoint: median survival time, dose: 1.88 mg/kg/injection, schedule: Q01DX005 (ip), vehicle: Klucel + Tween-80) was 117 % of control, the T/C (endpoint: median survival time, dose: 3.75 mg/kg/injection, schedule: Q01DX005 (ip), vehicle: Klucel + Tween-80) was 152 % of control and the T/C (endpoint: median survival time, dose: 7.5 mg/kg/injection, schedule: Q01DX005 (ip), vehicle: Klucel + Tween-80) was 150 % of control and 163 % of control. The T/C (endpoint: median survival time, dose: 15.0 mg/kg/injection, schedule: Q01DX005 (ip), vehicle: Klucel + Tween-80) was 167 % of control and 184 % of control and the T/C (endpoint: median survival time, dose: 30.0 mg/kg/injection, schedule: Q01DX005 (ip), vehicle: Klucel + Tween-80) was 181 % of control.
For `O=C(CNC(=O)NCc1ccco1)N/N=C/c1c(O)ccc2ccccc12`, the T/C (endpoint: mean survival time, dose: 50.0 mg/kg/injection, schedule: Q01DX009 (ip), vehicle: saline with Tween-80) was 93 % of control, the T/C [1] was 97 % of control and the T/C [6] was 101 % of control.
For `O=C(Oc1cccc(O)c1)c1ccccc1`, the T/C [1] was 104 % of control, the T/C [5] was 89 % of control and the T/C [6] was 100 % of control. The T/C [7] was 92 % of control, the T/C [8] was 96 % of control and the T/C [9] was 101 % of control.
In the case of `Cc1cccc(S(=O)(=O)N(C)C)c1`, the T/C [1] is reported as 95 % of control, the T/C [5] is reported as 94 % of control and the T/C [6] is reported as 95 % of control. The T/C [7] was 92 % of control, the T/C [8] was 92 % of control and the T/C [9] was 96 % of control.
For `N#Cc1c(Cl)cc(C2(OC(=O)c3ccc([N+](=O)[O-])cc3)C3C=CC2CC3)cc1Cl` (stereo not drawn), the T/C (endpoint: median survival time, dose: 25.0 mg/kg/injection, schedule: Q04DX002 (ip), vehicle: saline with Tween-80) was 100 % of control, the T/C (endpoint: median survival time, dose: 50.0 mg/kg/injection, schedule: Q04DX002 (ip), vehicle: saline with Tween-80) was 87 % of control and the T/C (endpoint: median survival time, dose: 100.0 mg/kg/injection, schedule: Q04DX002 (ip), vehicle: saline with Tween-80) was 100 % of control. The T/C (endpoint: median survival time, dose: 200.0 mg/kg/injection, schedule: Q04DX002 (ip), vehicle: saline with Tween-80) was 100 % of control.
For `COc1ccccc1NC1=NCCO1`, the T/C [10] was 105 % of control, the T/C [11] was 97 % of control and the T/C (endpoint: mean survival time, dose: 100.0 mg/kg/injection, schedule: Q01DX001 (ip), vehicle: saline with Tween-80) was 90 % of control. The T/C [2] was 94 % of control.
In the case of `CCCCCCCCCCCCNC(=O)Nc1cccc(OC)c1`, the T/C [2] is reported as 94 % of control, the T/C [3] is reported as 94 % of control and the T/C [4] is reported as 87 % of control.
`O=C(COc1ccccc1)NC(=S)Nc1ccc([N+](=O)[O-])cc1Cl` was tested, and the T/C [1] was 88 % of control and 89 % of control, the T/C [2] was 95 % of control and the T/C [6] was 93 % of control and 94 % of control. For the same compound, the T/C [3] was 87 % of control, the T/C [8] was 92 % of control and 93 % of control and the T/C [4] was 91 % of control.
With `CC1(C)N=C(N)N=C(N)N1c1ccc(OCC(=O)Nc2ccc(S(=O)(=O)F)cc2)cc1` the T/C (endpoint: mean survival time, dose: 50.0 mg/kg/injection, schedule: Q01DX009 (ip), vehicle: saline) was 111 % of control, the T/C (endpoint: mean survival time, dose: 100.0 mg/kg/injection, schedule: Q01DX009 (ip), vehicle: saline) was 109 % of control and the T/C (endpoint: mean survival time, dose: 200.0 mg/kg/injection, schedule: Q01DX009 (ip), vehicle: saline) was 115 % of control. For the same compound, the T/C (endpoint: mean survival time, dose: 300.0 mg/kg/injection, schedule: Q01DX009 (ip), vehicle: saline) was 115 % of control and the T/C (endpoint: mean survival time, dose: 400.0 mg/kg/injection, schedule: Q01DX009 (ip), vehicle: saline) was 121 % of control.
With `CS(=O)(=O)OCCNC(=O)N(CCCl)N=O` the T/C (endpoint: mean survival time, dose: 0.39 mg/kg/injection, schedule: Q01DX009 (ip), vehicle: water) was 95 % of control, the T/C (endpoint: mean survival time, dose: 0.78 mg/kg/injection, schedule: Q01DX009 (ip), vehicle: water) was 108 % of control and the T/C (endpoint: mean survival time, dose: 3.13 mg/kg/injection, schedule: Q01DX009 (ip), vehicle: water) was 193 % of control. For the same compound, the T/C (endpoint: mean survival time, dose: 5.0 mg/kg/injection, schedule: Q01DX001 (ip), vehicle: distilled water + Tween-80) was 120 % of control, the T/C (endpoint: mean survival time, dose: 6.25 mg/kg/injection, schedule: Q01DX009 (ip), vehicle: water) was 356 % of control and the T/C (endpoint: mean survival time, dose: 20.0 mg/kg/injection, schedule: Q01DX001 (ip), vehicle: distilled water + Tween-80) was 216 % of control and 342 % of control. The T/C (endpoint: mean survival time, dose: 40.0 mg/kg/injection, schedule: Q01DX001 (ip), vehicle: distilled water + Tween-80) was 311 % of control and 500 % of control.
`CN(C)C(=O)Sc1ccc(S(=O)(=O)F)cc1F` was tested, and the T/C [2] was 91 % of control and the T/C [3] was 91 % of control.
`N#CC(c1c[nH]c2ccccc12)N1CCOCC1` (stereo not drawn) was tested, and the T/C [10] was 105 % of control and the T/C [11] was 100 % of control.
`CN(C)C(=O)Sc1ccc(S(=O)(=O)F)c(Cl)c1Cl` was tested, and the T/C [2] was 100 % of control, the T/C [3] was 100 % of control and the T/C [4] was 103 % of control.
In the case of `O=C(/C=C/c1ccc2c(c1)OCO2)c1ccc(Cl)cc1`, the T/C [5] is reported as 94 % of control and the T/C [7] is reported as 89 % of control.
For `O=C1CC2CCN(C(=O)c3ccccc3)C(Cc3c[nH]c4ccccc34)C2O1` (stereo not drawn), the T/C (endpoint: mean survival time, dose: 100.0 mg/kg/injection, schedule: Q01DX001 (ip), vehicle: saline) was 105 % of control, the T/C (endpoint: mean survival time, dose: 200.0 mg/kg/injection, schedule: Q01DX001 (ip), vehicle: saline) was 94 % of control and the T/C (endpoint: mean survival time, dose: 400.0 mg/kg/injection, schedule: Q01DX001 (ip), vehicle: saline) was 93 % of control.
